According to patent US20080234326A1, “Novel Salts of Pantoprazole and (S) - Pantoprazole” (Altana Pharma AG, priority 2004, published 2008):

Assay: stability as a storage form
Type: physicochemical
Settings: statement in words, no method or data given

COc1ccnc(C[S+]([O-])c2nc3cc(OC(F)F)ccc3[n-]2)c1OC.[Na+] [sodium salt of (−)- or (S)-pantoprazole]
formation of a stable storage form: does not form a stable storage form
